Key:
Type in all cases: in vivo
rice (Oryza sativa) = test: Test B flooded paddy test, visual plant response rating; conditions: 250 g ai/ha; applied to paddy water at 2-leaf stage; rated after 13 to 15 days; scale 0 to 100, 0 is no effect, 100 is complete control
Method in brief: (§1)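 Visual injury score 0 to 100 against controls (0 = no effect, 100 = complete control), taken 13–15 days after treatment. Test compound went into the paddy water of pots flooded 3 cm over the soil surface, water kept at that depth in greenhouse.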

[1] = tested on: sedge, umbrella (small-flower umbrella sedge, Cyperus difformis); test: as above; conditions: 250 g ai/ha; applied to paddy water at 2-leaf stage; rated after 13 to 15 days; scale 0 to 100, 0 is no effect, 100 is complete control
Method in brief: as §1

[2] = tested on: barnyardgrass (Echinochloa crus-galli); test: as above; conditions: 250 g ai/ha; applied to paddy water at 2-leaf stage; rated after 13 to 15 days; scale 0 to 100, 0 is no effect, 100 is complete control
Method in brief: as §1

[3] = tested on: ducksalad (Heteranthera limosa); test: as above; conditions: 250 g ai/ha; applied to paddy water at 2-leaf stage; rated after 13 to 15 days; scale 0 to 100, 0 is no effect, 100 is complete control
Method in brief: as §1

[4] = tested on: pigweed (Amaranthus retroflexus); test: Test A preemergence, directed soil spray, visual injury rating; conditions: approx. 10 d, 0 = no effect, 100 = complete control
Method in brief: (§2)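 In a loam soil and sand blend, either planted seeds got a preemergence directed soil spray or plants at the one- to two-leaf stage (2 to 10 cm tall) were sprayed, using test chemicals in a non-phytotoxic solvent mixture with surfactant. After about 10 d in a greenhouse, injury was visually rated against untreated controls on a 0-100 scale.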

[5] = tested on: ryegrass, Italian (Italian ryegrass, Lolium multiflorum); test: as above; conditions: approx. 10 d, 0 = no effect, 100 = complete control
Method in brief: as §2

[6] = tested on: foxtail, giant (giant foxtail, Setaria faberii); test: as above; conditions: approx. 10 d, 0 = no effect, 100 = complete control
Method in brief: as §2

[7] = tested on: barnyardgrass (Echinochloa crus-galli); test: as above; conditions: approx. 10 d, 0 = no effect, 100 = complete control
Method in brief: as §2

kochia (Kochia scoparia) [8] = test: as above; conditions: approx. 10 d, 0 = no effect, 100 = complete control
Method in brief: as §2

[9] = tested on: ragweed (common ragweed, Ambrosia elation); test: as above; conditions: approx. 10 d, 0 = no effect, 100 = complete control
Method in brief: as §2

[10] = tested on: wheat (Triticum aestivum); test: Test A postemergence application, visual injury rating; conditions: approx. 10 d, 0 = no effect, 100 = complete control
Method in brief: as §2

[11] = tested on: pigweed (Amaranthus retroflexus); test: as above; conditions: approx. 10 d, 0 = no effect, 100 = complete control
Method in brief: as §2

[12] = tested on: blackgrass (Alopecurus myosuroides); test: as above; conditions: approx. 10 d, 0 = no effect, 100 = complete control
Method in brief: as §2

[13] = tested on: ryegrass, Italian (Italian ryegrass, Lolium multiflorum); test: as above; conditions: approx. 10 d, 0 = no effect, 100 = complete control
Method in brief: as §2

corn (Zea mays) = test: as above; conditions: approx. 10 d, 0 = no effect, 100 = complete control
Method in brief: as §2

[14] = tested on: foxtail, giant (giant foxtail, Setaria faberii); test: as above; conditions: approx. 10 d, 0 = no effect, 100 = complete control
Method in brief: as §2

[15] = tested on: galium (catchweed bedstraw, Galium aparine); test: as above; conditions: approx. 10 d, 0 = no effect, 100 = complete control
Method in brief: as §2

[16] = tested on: barnyardgrass (Echinochloa crus-galli); test: as above; conditions: approx. 10 d, 0 = no effect, 100 = complete control
Method in brief: as §2

kochia (Kochia scoparia) [17] = test: as above; conditions: approx. 10 d, 0 = no effect, 100 = complete control
Method in brief: as §2

[18] = tested on: ragweed (common ragweed, Ambrosia elation); test: as above; conditions: approx. 10 d, 0 = no effect, 100 = complete control
Method in brief: as §2

SMILES	Plant response rating, Flood, Rice (rice (Oryza sativa))	Plant response rating, Flood, Sedge, Umbrella [1]	Plant response rating, Flood, Barnyardgrass [2]	Plant response rating, Flood, Ducksalad [3]	Pigweed plant response rating (0 to 100 scale) ([4]; 125 g ai/ha)	Pigweed plant response rating (0 to 100 scale) ([4]; 500 g ai/ha)	Ryegrass, Italian plant response rating (0 to 100 scale) ([5]; 125 g ai/ha)	Ryegrass, Italian plant response rating (0 to 100 scale) ([5]; 500 g ai/ha)	Foxtail, Giant plant response rating (0 to 100 scale) ([6]; 125 g ai/ha)	Foxtail, Giant plant response rating (0 to 100 scale) ([6]; 500 g ai/ha)	Barnyardgrass plant response rating (0 to 100 scale) ([7]; 125 g ai/ha)	Barnyardgrass plant response rating (0 to 100 scale) ([7]; 500 g ai/ha)	Kochia plant response rating (0 to 100 scale) (kochia (Kochia scoparia) [8]; 125 g ai/ha)	Kochia plant response rating (0 to 100 scale) (kochia (Kochia scoparia) [8]; 500 g ai/ha)	Ragweed plant response rating (0 to 100 scale) ([9]; 125 g ai/ha)	Ragweed plant response rating (0 to 100 scale) ([9]; 500 g ai/ha)	Wheat plant response rating (0 to 100 scale) ([10]; 125 g ai/ha)	Wheat plant response rating (0 to 100 scale) ([10]; 500 g ai/ha)	Pigweed plant response rating (0 to 100 scale) ([11]; 125 g ai/ha)	Pigweed plant response rating (0 to 100 scale) ([11]; 500 g ai/ha)	also measured
Cc1ccc(C2Cn3c(C)nnc3C2C(=O)Nc2ccccc2F)cc1 (stereo not drawn) [Compound 27]	0	0	0	70	0	0	20	20	80	90	0	90	0	0	0	0	0	0	0	0	Blackgrass plant response rating (0 to 100 scale) ([12]; 125 g ai/ha): 0; Blackgrass plant response rating (0 to 100 scale) ([12]; 500 g ai/ha): 20; Ryegrass, Italian plant response rating (0 to 100 scale) ([13]; 125 g ai/ha): 0; Ryegrass, Italian plant response rating (0 to 100 scale) ([13]; 500 g ai/ha): 30; Corn plant response rating (0 to 100 scale) (corn (Zea mays); 125 g ai/ha): 0; Corn plant response rating (0 to 100 scale) (corn (Zea mays); 500 g ai/ha): 0; Foxtail, Giant plant response rating (0 to 100 scale) ([14]; 125 g ai/ha): 30; Foxtail, Giant plant response rating (0 to 100 scale) ([14]; 500 g ai/ha): 90; Galium plant response rating (0 to 100 scale) ([15]; 125 g ai/ha): 0; Galium plant response rating (0 to 100 scale) ([15]; 500 g ai/ha): 40; Barnyardgrass plant response rating (0 to 100 scale) ([16]; 125 g ai/ha): 40; Barnyardgrass plant response rating (0 to 100 scale) ([16]; 500 g ai/ha): 90; Kochia plant response rating (0 to 100 scale) (kochia (Kochia scoparia) [17]; 125 g ai/ha): 0; Kochia plant response rating (0 to 100 scale) (kochia (Kochia scoparia) [17]; 500 g ai/ha): 0; Ragweed plant response rating (0 to 100 scale) ([18]; 125 g ai/ha): 0; Ragweed plant response rating (0 to 100 scale) ([18]; 500 g ai/ha): 0
CCc1ccc(C2Cn3cnnc3C2C(=O)Nc2cccc(F)c2C)cc1 (stereo not drawn) [Compound 28]	20	75	40	90	0	0	0	30	70	90	60	90	60	60	0	30	0	0	0	0	Blackgrass plant response rating (0 to 100 scale) ([12]; 125 g ai/ha): 20; Blackgrass plant response rating (0 to 100 scale) ([12]; 500 g ai/ha): 40; Ryegrass, Italian plant response rating (0 to 100 scale) ([13]; 125 g ai/ha): 0; Ryegrass, Italian plant response rating (0 to 100 scale) ([13]; 500 g ai/ha): 50; Corn plant response rating (0 to 100 scale) (corn (Zea mays); 125 g ai/ha): 0; Corn plant response rating (0 to 100 scale) (corn (Zea mays); 500 g ai/ha): 0; Foxtail, Giant plant response rating (0 to 100 scale) ([14]; 125 g ai/ha): 40; Foxtail, Giant plant response rating (0 to 100 scale) ([14]; 500 g ai/ha): 60; Galium plant response rating (0 to 100 scale) ([15]; 125 g ai/ha): 20; Galium plant response rating (0 to 100 scale) ([15]; 500 g ai/ha): 30; Barnyardgrass plant response rating (0 to 100 scale) ([16]; 125 g ai/ha): 50; Barnyardgrass plant response rating (0 to 100 scale) ([16]; 500 g ai/ha): 80; Kochia plant response rating (0 to 100 scale) (kochia (Kochia scoparia) [17]; 125 g ai/ha): 20; Kochia plant response rating (0 to 100 scale) (kochia (Kochia scoparia) [17]; 500 g ai/ha): 50; Ragweed plant response rating (0 to 100 scale) ([18]; 125 g ai/ha): 0; Ragweed plant response rating (0 to 100 scale) ([18]; 500 g ai/ha): 0
